The text below walks through data of US20240148675A1, “TOPICAL COMPOSITIONS AND METHODS FOR TREATMENT” (Atossa Therapeutics, Inc., priority 2017, published 2024).

Data set [1] can be described thus: Stability of endoxifen free base in polar organic solvents in the absence and presence of skin. As to conditions: for potency and stability in the solvents in the presence of skin: compared with potency in absence of skin after 2 days; for % Potency: relative to initiation of study. Format: physicochemical. The procedure:
(§1) HPLC-UV. Briefly, (E)- and (Z)-endoxifen were analyzed by High Performance Liquid Chromatography, HPLC (instrument: Agilent 1100) using a UV detector (Agilent). Chromatographic resolution was obtained using a Luna Phenyl Hexyl Column ([…]×150 mm) at a column temperature of 40° C. Samples were injected in an injection volume of 10 ul and run at a flow rate of 1.0 ml/min. The mobile phase system used consisted of: A) water with 10 mM ammonium formate (HCOONH4) with 0.03% formic acid and B) Methanol with 10 mM ammonium formate (HCOONH4).
The stability studies of endoxifen free base in various pure polar organic solvents/MPEs were performed as described below. Accelerated stability studies of (Z)-endoxifen free base in solvents/MPEs were performed over a course of 2 days at 45° C. in both the presence and the absence of human cadaver skin to assess the degree to which the (Z)-endoxifen conversion to (E)-endoxifen by isomerization and or chemical degradation of the endoxifen is accelerated upon contact with skin and skin components. (Z)-Endoxifen solutions at ˜80% of saturation concentrations were prepared in 1 ml batches in solvents as listed below in the Table 3. The potencies of (Z)-endoxifen and (E)-endoxifen were determined by HPLC-UV analysis as described above. Potency results are shown compared with potencies measured when the sample were stored at the initiation of stability study.

Data set [2] is described as follows: Solubility of (Z) and (E)-endoxifen in polar organic solvents (HPLC-UV). Format: physicochemical. The method, then: (Z)-endoxifen free base was synthesized as described above in Example 1. (Z)-endoxifen was solubilized in various solvents as provided in Table 1, and tested for physical and chemical stability in solution. The solutions were prepared in ˜1 ml batches typically for solubility and stability testing. The mixture was stirred overnight on a rotisserie at room temperature. The next, […], the suspension was filtered using a syringe filter (0.2 um pore size GHP membrane). The filtrated solution was then analyzed for the concentration of (Z)-endoxifen and (E)-endoxifen as using a validated HPLC-UV method as described below.
as §1
UV detection of (E)-endoxifen and (Z)-endoxifen isomers was performed at 243 nm with a run time of 30 minutes. Retention times for (E)-endoxifen and (Z)-endoxifen were 15.14 m and 16.25 m respectively. […]

For data set [3] the following is noted: aqueous medium, 45° C., day 15, starting from 98%; cited from earlier work.
[4] abbreviates: in Diethyl Sebacate, 45° C. + skin (human cadaver), 2 days.
Setting [5] is: in Diethylene glycol monoethyl ether, 45° C. + skin (human cadaver), 2 days.
Setting [6] is: in Dimethyl Isosorbide, 45° C. + skin (human cadaver), 2 days.
The mark [7] stands for this setting: in Dipropylene Glycol, 45° C. + skin (human cadaver), 2 days.
Where [8] appears, read: in Isopropyl Myristate, 45° C. + skin (human cadaver), 2 days.
Setting [9] is: in PEG 300, 45° C. + skin (human cadaver), 2 days.

As for `CC/C(=C(/c1ccc(O)cc1)c1ccc(OCCNC)cc1)c1ccccc1` [(E)-endoxifen free base], the “potency and stability in the solvents in the presence of skin” value in data set [1] (45° C.) is “maintained potency and stability”. Besides, the “% Potency” value in data set [1] (setting [4]) is 99%; in data set [1] (setting [5]) it was 98%; in data set [1] (setting [6]), 16%; in data set [1] (setting [7]), 95%; in data set [1] (setting [8]), 68%; in data set [1] (setting [9]), 92%.
In the case of `CC/C(=C(\c1ccc(O)cc1)c1ccc(OCCNC)cc1)c1ccccc1` [Total Endoxifen free base, (E/Z)-4-[1-[4-[2-(Methylamino)ethoxy]phenyl]-2-phenyl-1-buten-1-yl]-phenol], the “stability of dissolved endoxifen” value in data set [1] (dissolved in dimethyl isosorbide and isopropyl myristate, 2 days, 45° C.) is recorded as “poor stability”. Also, the “solubility in polar organic solvents/MPEs” value in data set [2] (DMSO, ethanol, diethylene monoethyl ether, and oleic acid) is given as “significantly soluble”.
Take `CC/C(=C(\c1ccc(O)cc1)c1ccc(OCCNC)cc1)c1ccccc1.Cl` [(Z)-endoxifen HCl]: the “(Z)-endoxifen remaining after degradation” value in data set [3] is reported as 75%.
As for `CC/C(=C(\c1ccc(O)cc1)c1ccc(OCCNC)cc1)c1ccccc1` [(Z)-endoxifen free base, (Z)-4-(1-(4-(2-(methylamino)ethoxy)phenyl)-2-phenylbut-1-enyl)phenol], the “potency and stability in the solvents in the presence of skin” value in data set [1] (45° C.) is “maintained potency and stability”. Besides, the “% Potency” value is on record as 94% in data set [1] (setting [4]); 98% in data set [1] (setting [5]); 99% in data set [1] (in Diisopropyl Adipate, 45° C. + skin (human cadaver), 2 days); 17% in data set [1] (setting [6]); 94% in data set [1] (setting [7]); 63% in data set [1] (setting [8]). In addition, the “% Potency” value in data set [1] (setting [9]) is on record as 92%. Also, the “stability of (Z)-endoxifen in polar organic solvents” value in data set [2] (polar organic solvents of Table 1) is “surprisingly stable”.
